Results on 26 compounds are retold here after US20250353835A1, “N-TETRAZOLYL ARYL UREA-BASED DERIVATIVES, PREPARATION METHOD THEREFOR, AND USE THEREOF” (Hangzhou Yirui Pharmaceutical Technology Co., Ltd, priority 2022, published 2025).

The target in the assay is T1, human B1R (Homo sapiens, UniProt P46663).
T1 construct: host or cells: HEK293
T1 sequence (P46663 1-353): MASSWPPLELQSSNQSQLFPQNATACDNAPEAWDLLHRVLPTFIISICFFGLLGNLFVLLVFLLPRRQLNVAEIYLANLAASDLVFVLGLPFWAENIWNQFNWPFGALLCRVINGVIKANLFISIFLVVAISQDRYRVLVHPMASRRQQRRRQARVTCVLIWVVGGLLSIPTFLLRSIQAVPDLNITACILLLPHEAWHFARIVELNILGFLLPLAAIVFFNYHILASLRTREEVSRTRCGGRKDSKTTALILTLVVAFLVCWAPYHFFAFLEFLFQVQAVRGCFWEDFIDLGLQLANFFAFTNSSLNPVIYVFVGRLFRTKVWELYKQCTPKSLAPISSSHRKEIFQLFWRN
In words: FLIPR calcium ion flux assay, inhibitory activity against human B1R. The assay is classed as cell-based. Conditions: HEK293 cells stably expressing human B1R; agonist [Lys-des-Arg9]-Bradykinin 4.6 nM (EC80); FLIPR method. The procedure:
The inhibitory activity of the compounds against human B1R and B2R channels was determined by calcium ion flux assay using fluorometric imaging plate reader (FLIPR method). See literatures of Lee, Chen et al. for the method. [Lee et al. 2008][Chen et al. 2011]
1. Cell culture: HEK293 recombinant cell lines (WuXi AppTec, Shanghai, China) stably expressing human B1R and B2R were cultured in DMEM (Invitrogen, Cat #11965) medium containing 10% calf serum (Excellbio, Cat #FSP500), 5 μg/ml Geneticin (Invitrogen, Cat #10131) and Penicillin/Streptomycin (Invitrogen, Cat #15140). The incubator conditions were 37° C. and ambient humidity containing 5% CO2.
2. Preparation of the cell assay plate: B1R and B2R cells were seeded in a 384-well assay plate (Greiner, Cat #781090) at a density of 20,000 cells per well (20 μl/well), and cultured overnight at 37° C. in an incubator with 5% CO2. The next day, Fluo-4 Direct™ Loading Buffer (containing 5 mM Probenicid) containing 2× (8 μM) Fluo-4 Direct (Invitrogen, Cat #F10471) was added to each of the wells. The cells were cultured at 37° C. for 50 min, and then culture for at the room temperature 10 min.
3. Preparation of the compound assay plate: The compound was dissolved in 100% DMSO to make a 30 mM stock solution and stored at −20° C. On the day of use, the stock solution of the compound was thawed at the room temperature. Each of the compounds was serially diluted at 1:5 in DMSO culture medium with a starting concentration of 30 μM for 9 concentration points on a 384-well plate. Each of compounds was diluted in duplicate for testing. [Des-Arg10]-HOE140 was used as a positive control compound, and diluted in the same manner with a starting concentration of 3 μM.
4. FLIPR assay: The cell assay plate was placed in a FLIPR instrument ([…]). The compounds in the compound assay plate were added to the corresponding wells on the cell assay plate (10 μL/well) using an automatic program. The calcium ion fluorescence signal was recorded to determine whether the compound may have agonist activity. After 10 minutes, a B1R agonist [Lys-des-Arg9]-Bradykinin2 (10 μL/well) with a final concentration of 4.6 nM (EC80) was added to each of the wells to stimulate the generation of intracellular calcium ion flux signals. The Ca^++-dependent fluorescence signal was continuously monitored at a wavelength of 538 nm to analyze the inhibitory activity of the compound.
5. Data analysis: The data was collected and analyzed by a FLIPR program. The inhibitory (or agonist) activity of the compound at each concentration was evaluated by the fluorescence peak. The IC50 values of the compounds were calculated using EXCEL and PRISM programs.

By IC50 is commonly meant the concentration that inhibits the measured activity by half. For the compound `COc1ccc(-c2ccc(NC(=O)N[C@H]3CC[C@H](C)CC3)cc2-c2nn[nH]n2)cc1OC` [Compound 62, 1-(3′,4′-dimethoxy-2-(2H-tetrazol-5-yl)-[1,1′-biphenyl]-4-yl)-3-((trans)-4-methylcyclohexyl)urea], the IC50 is 60.2 nM.

As to `CC1CCN(C(=O)Nc2cc(F)c(C(=O)OC3CCCCC3)c(-c3nn[nH]n3)c2)CC1` [Compound 23, cyclohexyl 2-fluoro-4-(4-methylpiperidine-1-formamido)-6-(2H-tetrazol-5-yl)benzoate], the IC50 is 44.6 nM.

Take `CC1CCN(C(=O)Nc2ccc(-c3ccc4c(cnn4C)c3)c(-c3nn[nH]n3)c2)CC1` [Compound 21, 4-methyl-N-(4-(1-methyl-1H-indazol-5-yl)-3-(2H-tetrazol-5-yl)phenyl)piperidine-1-carboxamide]: the IC50 was 21.1 nM.

For `CCOC(=O)c1ccc(NC(=O)N2CCC(C(F)(F)F)CC2)cc1-c1nn[nH]n1` [Compound 30], the 50% inhibitory concentration (IC50) was 35.4 nM.

Regarding `Cn1ncc2cc(-c3ncc(NC(=O)N4CCC(C(C)(C)C)CC4)cc3-c3nn[nH]n3)ccc21` [Compound 36, 4-(tert-butyl)-N-(6-(1-methyl-1H-indazol-5-yl)-5-(2H-tetrazol-5-yl)pyrid-3-yl)piperidine-1-carboxamide], the IC50 came out at 48.3 nM.

`CC(C)(C)C1CCN(C(=O)Nc2ccc(C3C=COCC3)c(-c3nn[nH]n3)c2)CC1` (centres unmarked) [Compound 41, 4-(tert-butyl)-N-(4-(3,4-dihydro-2H-pyran-4-yl)-3-(2H-tetrazol-5-yl)phenyl)piperidine-1-carboxamide]: the IC50 amounted to 448 nM.

As to `CC(C)(C)C1CCN(C(=O)Nc2ccc(C(=O)NC3CCCC3)c(-c3nn[nH]n3)c2)CC1` [Compound 46, 4-(tert-butyl)-N-(4-(cyclopentylaminoformyl)-3-(2H-tetrazol-5-yl)phenyl)piperidine-1-carboxamide], the IC50 was found to be 74.6 nM.

Take `CC(C)(C)C1CCN(C(=O)Nc2ccc(-c3cnn(C4CCC4)c3)c(-c3nn[nH]n3)c2)CC1` [Compound 9, 4-(tert-butyl)-N-(4-(1-cyclobutyl-1H-pyrazol-4-yl)-3-(2H-tetrazol-5-yl)phenyl) piperidine-1-carboxamide]: the IC50 stood at 45.9 nM.

In the case of `COc1ccc(-c2ccc(NS(=O)(=O)N3CCC(C)CC3)cc2-c2nn[nH]n2)cc1OC` [Compound 19, N-(3′,4′-dimethoxy-2-(2H-tetrazol-5-yl)-[1,1′-biphenyl]-4-yl)-4-methylpiperidine-1-sulfamide], the IC50 is 1140 nM.

On to `O=C(OC1CCCCC1)c1c(F)cc(NC(=O)N2CCC(C(F)(F)F)CC2)cc1-c1nn[nH]n1` [Compound 29, cyclohexyl 2-fluoro-6-(2H-tetrazol-5-yl)-4-(4-(trifluoromethyl)piperidine-1-formamido)benzoate], for which the IC50 was 34.6 nM.

Consider `Cn1ncc2cc(-c3ccc(NC(=O)N4CCC(C(C)(C)C)CC4)cc3-c3nn[nH]n3)ccc21` [Compound 10, 4-(tert-butyl)-N-(4-(1-methyl-1H-indazol-5-yl)-3-(2H-tetrazol-5-yl)phenyl)piperidine-1-carboxamide], for which the IC50 worked out at 18.3 nM.

With `C[C@H]1CC[C@H](NC(=O)Nc2ccc(C3=CCOCC3)c(-c3nn[nH]n3)c2)CC1` [Compound 66, 1-(4-(3,6-dihydro-2H-pyran-4-yl)-3-(2H-tetrazol-5-yl)phenyl)-3-((trans)-4-methylcyclohexyl)urea], the IC50 was 1650 nM.

Take `C[C@H]1CC[C@@H](NC(=O)Nc2ccc(C3CCOCC3)c(-c3nn[nH]n3)c2)CC1` [Compound 67, 1-((cis)-4-methylcyclohexyl)-3-(4-(tetrahydro-2H-pyran-4-yl)-3-(2H-tetrazol-5-yl)phenyl)urea]: the half-inhibitory concentration (IC50) stood at 13300 nM.

Turning to `Cc1cc(-c2ccc(NC(=O)N3CCC(C(C)(C)C)CC3)cc2-c2nn[nH]n2)ccn1` [Compound 52, 4-(tert-butyl)-N-(4-(2-methylpyridin-4-yl)-3-(2H-tetrazol-5-yl)phenyl)piperidine-1-carboxamide], the IC50 was 34.9 nM.

Take `CC(C)(C)C1CCN(C(=O)Nc2ccc(C3CCOCC3)c(-c3nn[nH]n3)c2)CC1` [Compound 40, 4-(tert-butyl)-N-(4-(tetrahydro-2H-pyran-4-yl)-3-(2H-tetrazol-5-yl)phenyl)piperidine-1-carboxamide]: the IC50 turned out to be 2040 nM.

`Cn1ncc2cc(-c3ccc(NC(=O)N4CCC(C(F)(F)F)CC4)cc3-c3nn[nH]n3)ccc21` [Compound 27, N-(4-(1-methyl-1H-indazol-5-yl)-3-(2H-tetrazol-5-yl)phenyl)-4-(trifluoromethyl)piperidine-1-carboxamide]: the IC50 amounted to 25.7 nM.

`CC(C)(C)C1CCN(C(=O)Nc2ccc(-c3ccc4c(c3)OCO4)c(-c3nn[nH]n3)c2)CC1` [Compound 39, N-(4-(benzo[d][1,3]dioxolan-5-yl)-3-(2H-tetrazol-5-yl)phenyl)-4-(tert-butyl)piperidine-1-carboxamide]: the IC50 came to 82.4 nM.

In the case of `C[C@H]1CC[C@H](NC(=O)Nc2ccc(C3CCOCC3)c(-c3nn[nH]n3)c2)CC1` [Compound 68, 1-((trans)-4-methylcyclohexyl)-3-(4-(tetrahydro-2H-pyran-4-yl)-3-(2H-tetrazol-5-yl)phenyl)urea], the IC50 came to 7490 nM.

For `COc1ccc(-c2c(F)cc(NC(=O)N3CCC(C)CC3)cc2-c2nn[nH]n2)cc1OC` [Compound 20, N-(2-fluoro-3′,4′-dimethoxy-6-(2H-tetrazol-5-yl)-[1,1′-biphenyl]-4-yl)-4-methyl piperidine-1-carboxamide], the IC50 amounted to 32.3 nM.

For the compound `Cc1ccc(-c2ccc(NC(=O)N3CCC(C(C)(C)C)CC3)cc2-c2nn[nH]n2)cn1` [Compound 51, 4-(tert-butyl)-N-(4-(6-methylpyrid-3-yl)-3-(2H-tetrazol-5-yl)phenyl)piperidine-1-carboxamide], the IC50 stood at 17.8 nM.

Consider `CC(C)(C)C1CCN(C(=O)Nc2ccc(C(=O)OC3CCCC3)c(-c3nn[nH]n3)c2)CC1` [Compound 43, cyclopentyl 4-(4-(tert-butyl)piperidine-1-formamido)-2-(2H-tetrazol-5-yl)benzoate], for which the IC50 is 95.2 nM.

Turning to `C[C@H]1CC[C@H](NC(=O)Nc2ccc(-c3ccc4c(c3)OCO4)c(-c3nn[nH]n3)c2)CC1` [Compound 69, 1-(4-(benzo[d][1,3]dioxolan-5-yl)-3-(2H-tetrazol-5-yl)phenyl)-3-((trans)-4-methylcyclohexyl)urea], the IC50 was 4910 nM.

As to `COc1ccc(-c2ccc(NC(=O)N3CCC(C(F)(F)F)CC3)cc2-c2nn[nH]n2)cc1Cl` [Compound 28, N-(3′-chloro-4′-methoxy-2-(2H-tetrazol-5-yl)-[1,1′-biphenyl]-4-yl)-4-(trifluoromethyl)piperidine-1-carboxamide], the IC50 stood at 24.5 nM.

For `COc1ccc(-c2ccc(NC(=O)N[C@H]3CC[C@@H](C)CC3)cc2-c2nn[nH]n2)cc1OC` [Compound 61, 1-(3′,4′-dimethoxy-2-(2H-tetrazol-5-yl)-[1,1′-biphenyl]-4-yl)-3-(4-methylcyclohexyl)urea], the IC50 was found to be 92.2 nM.

On to `COc1ccc(Oc2ccc(NC(=O)N[C@H]3CC[C@@H](C)CC3)cc2-c2nn[nH]n2)cc1OC` [Compound 63, 1-(4-(3,4-dimethoxyphenoxy)-3-(2H-tetrazol-5-yl)phenyl)-3-((cis)-4-methylcyclohexyl)urea], for which the IC50 was determined as 7710 nM.

Turning to `Cc1ccc(-c2c(F)cc(NC(=O)N3CCC(C(C)(C)C)CC3)cc2-c2nn[nH]n2)cn1` [Compound 55, 4-(tert-butyl)-N-(3-fluoro-4-(6-methylpyrid-3-yl)-5-(2H-tetrazol-5-yl)phenyl)piperidine-1-carboxamide], the IC50 was found to be 8.9 nM.
